Several values for one entry are separate records, joined by “and”; a condition that tells them apart may be missing. Identical values can stand only once. Activity calls are given as the source filed them. The rule behind the calls is not given here. A value given as a limit tells only on which side of the number the result lay.

The assay concerns S. cerevisiae expressing PfHSP40, growth rescue, plate reader. As to the kind of experiment: Yeast growth rescue from Plasmodium falciparum HSP40 toxicity, dose response confirmatory, plate reader (AID 540271).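 Note: yeast growth read after three days of incubation at 30 °C.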
As for `N#C/C(=C\c1cccc(Oc2ccccc2)c1)C(=O)N1CCOCC1`, the AC50 was 5.91 µM.

Regarding `CN(C)S(=O)(=O)c1cccc(NC(=S)NNC(=O)c2cc3ccccc3cc2O)c1`, the AC50 was 2.86 µM.

For `CSc1nccc(NC(=O)c2ccc(C(C)(C)C)cc2)n1`, the concentration at half-maximal activity (AC50) was 5.08 µM.

On to `Cc1ccc2c(C)c3ccc4ccccc4c3c[n+]2c1`, for which the AC50 is 6 µM.

Turning to `O=C(Nc1nnc(-c2ccccc2)o1)c1ccc(Cl)cc1`, the AC50 was 1.84 µM.

Take `Cc1cc(C(=O)N/N=C/c2ccc(O)c(O)c2O)c(C)n1-c1ccccc1`: the AC50 is 3.41 µM.

As for `O=C(CSc1ccc(-c2ccccn2)nn1)NC1CCCCC1`, the AC50 is 4.21 µM.

Consider `COc1ccc2c(n1)Sc1nc3ccccc3nc1N2`, for which the AC50 was 1.35 µM.

With `Nc1nc(-c2ccccc2)c(-c2ccc([N+](=O)[O-])cc2)s1`, the AC50 was 3.99 µM.

In the case of `COc1cc(NS(=O)(=O)c2ccc(C)cc2)c2ncccc2c1`, the AC50 is 5.4 µM.

With `Fc1ccc(CCNC(=S)Nc2ccc(F)c(Cl)c2)cc1`, the AC50 was 7.64 µM.

Regarding `CC(C)=CCc1c(O)cc(O)c2c1OC(c1ccc(O)cc1)CC2=O` (stereo unspecified), the AC50 was 5.76 µM.

On to `CCOC(=O)c1ccc(N2C(=O)CC(N3CCC(O)(c4ccc(Cl)cc4)CC3)C2=O)cc1` (stereo unspecified), for which the AC50 is 6.57 µM.

For the compound `O=C(N/N=C/c1ccc[nH]1)c1sc2ccccc2c1Cl`, the AC50 is 6.23 µM.

`Cc1csc(NC(=O)C(C)Oc2ccc(Cl)cc2C)n1` (stereo unspecified): the AC50 was 8.4 µM.

For `O=c1c(-c2cccc3ccccc23)[n+]([O-])c2ccccc2n1O`, the AC50 was 10.4 µM.

For the compound `O=C(C=Cc1cccc(O)c1)c1ccccc1O`, the AC50 is 2.1 µM.

For the compound `O=C1OCC(CO)(CO)N=C1NNc1ccc(Cl)c(Cl)c1`, the AC50 was 1.87 µM.

For the compound `Cc1ccc(NC(=O)CN(C)C(=O)c2cccnc2Nc2cccc(C(F)(F)F)c2)cc1`, the AC50 is 4.74 µM.

`CCCCc1ccc(-n2c(Cc3cccs3)n[nH]c2=S)cc1`: the AC50 was 6.45 µM.

With `CC(=O)C1=C(c2ccc(Br)cc2)C(=O)c2ccccc2C1=O`, the AC50 was 2.62 µM.

As to `O=C(CSc1ccc(-c2ccccn2)nn1)c1ccccc1`, the concentration at half-maximal activity (AC50) was 2.48 µM.

On to `Cc1ccc(C)c(NS(=O)(=O)c2cc(C(=O)N3CCc4ccccc4C3)ccc2Cl)c1`, for which the AC50 is 6.77 µM.

`Cc1ccc(Sc2cc(C)nc(-c3ccccn3)n2)cc1`: the AC50 was 3.51 µM.

On to `CC(C)(c1cc(Br)c(O)c(Br)c1)c1cc(Br)c(O)c(Br)c1`, for which the AC50 is 8.13 µM.

Consider `C(=N\Nc1nncc2ccccc12)/c1ccccn1`, for which the AC50 was 4.74 µM.

`COc1cnc(-c2ccccn2)nc1Sc1ccccc1`: the AC50 is 6.99 µM.

As to `O=C(Nc1ccc(Br)c(C(F)(F)F)c1)c1ccccc1`, the AC50 was 4.78 µM.

On to `O=C1CC(O)(C(F)(F)F)Oc2c1ccc1ccccc21` (stereo unspecified), for which the AC50 was 5.78 µM.

In the case of `O=C(c1ccccc1)c1coc2c1C(=O)c1ccccc1C2=O`, the AC50 is 11.7 µM.

For `CCCCn1c(=O)c(C(=O)NCc2ccncc2)c(O)c2ccccc21`, the AC50 was 4.99 µM.

Turning to `O=C(O)c1c(NC(=O)N2CCCC2)sc2c1CCCC2`, the AC50 was 3.42 µM.

On to `O=C(O)c1ccccc1NS(=O)(=O)c1cccc(-n2sc3ccccc3c2=O)c1`, for which the AC50 is 4.78 µM.

On to `Cc1cc(/C=N/n2cnnc2)c(C)n1-c1ccc(OCc2ccc(F)cc2)cc1`, for which the AC50 was 4.69 µM.

As for `O=C1c2ccccc2NC(c2ccc(-c3cccc([N+](=O)[O-])c3)o2)N1O` (stereo unspecified), the AC50 was 4.69 µM.

`Cc1nn(CCC#N)c(N)c1C1(O)C(=O)Nc2c(Cl)cc(Cl)cc21` (stereo unspecified): the AC50 is 7.66 µM.

Take `S=C(Nc1ccc(Oc2ccccc2)cc1)NC1CCCCCC1`: the AC50 is 6.93 µM.

Consider `c1ccc(Cn2cc(-c3cccnc3)cn2)cc1`, for which the AC50 was 1.62 µM.

For the compound `O=[N+]([O-])c1cc(C(F)(F)F)ccc1NCCc1c[nH]c2ccc(O)cc12`, the AC50 was 4.85 µM.

As to `COc1ccc(S(=O)(=O)N(C(=O)c2ccncc2)c2ccc(OC(=O)c3ccncc3)cc2)cc1`, the AC50 was 4.46 µM.

In the case of `O=c1c(Cl)c(Cl)cnn1Cc1nnc(-c2ccc(Cl)cc2)o1`, the AC50 was 7.45 µM.

For `CN(C)c1ccc(C=c2c3cc(O)ccc3n3c2cc(-c2ccccc2)[n+]3C)cc1`, the AC50 was 2.88 µM.

For `CC1CCN(c2nc(-c3ccncc3)nc3ccccc23)CC1`, the AC50 was 7.47 µM.

Regarding `Cc1ccccc1C(=O)NNC(=S)NC(=O)c1ccc(Cl)cc1Cl`, the AC50 was 2.36 µM.

In the case of `O=c1nc(N/N=C/c2ccccn2)cn[nH]1`, the AC50 was 5.76 µM.

On to `CCN(CC)c1ccc(/C=N/NC(=O)c2c(Cl)cnn2C)c(O)c1`, for which the AC50 is 4.78 µM.

For the compound `Cc1cccc(NC(=S)NC(C)CCc2ccccc2)c1` (stereo unspecified), the AC50 is 7.92 µM.

As to `C=CS(=O)(=O)c1sc(Cl)c(N2CCOCC2)c1[N+](=O)[O-]`, the AC50 is 1.91 µM.

Regarding `COc1ccc(OC)c(-c2c3cc(O)c(=O)cc-3oc3cc(O)c(O)cc23)c1`, the AC50 was 3.79 µM.

For the compound `Cc1cc(-c2ccccc2)n(-c2cc(N/N=C/c3ccccc3O)ncn2)n1`, the AC50 is 5.77 µM.

Consider `CC(C)(C)n1nc(-c2ccc(F)cc2)c2c(N)ncnc21`, for which the AC50 is 1.47 µM.

With `CCCCCCCN1N=C(C)C(C(=O)c2ccccc2)C1=O` (stereo unspecified), the AC50 was 3.73 µM.

For the compound `CC(=O)Nc1cccc(NC(=O)CSc2ccc(-c3ccccn3)nn2)c1`, the AC50 is 3.64 µM.

As for `O=C(CSc1nnc(-c2ccccc2O)n1Cc1ccccc1)NNC(=O)c1ccccc1O`, the AC50 was 3.94 µM.

`C[n+]1c2cc(N)ccc2cc2ccc(N)cc21`: the AC50 was 1.82 µM and 1 µM.

Turning to `Cc1nc2ccc(NC(=O)COc3cccc(F)c3)cc2s1`, the concentration at half-maximal activity (AC50) is 10.2 µM.

For `Cc1ccc2oc(-c3ccccc3)c(C(=O)O)c(=O)c2c1`, the AC50 was 5.94 µM.

Regarding `O=C(Nc1nnc(-c2cccs2)o1)c1cccc(Oc2ccccc2)c1`, the AC50 was 2.57 µM.

On to `O=C1C(Nc2ccccc2)=C/C(=N/S(=O)(=O)c2cccs2)c2ccccc21`, for which the AC50 is 3.48 µM.

For the compound `Clc1ccccc1C(c1ccccc1)(c1ccccc1)n1ccnc1`, the AC50 is 0.387 µM.

With `Cn1ccsc1=NC(=O)c1ccc([N+](=O)[O-])o1`, the AC50 is > 12 µM (inactive).

For the compound `C=C(C)COc1ccc(-c2[nH]ncc2-c2ccc(Br)cc2)c(O)c1`, the AC50 is 4.66 µM.

For `COc1cccc(-n2nc(C#N)c(Cl)cc2=O)c1`, the AC50 was 5.59 µM.

For the compound `COc1cccc(/C=N/Nc2ncc(C(F)(F)F)cc2Cl)c1O`, the AC50 was 1.49 µM.

Consider `O=C(C1CCN(C2CC(=O)N(c3cccc(Cl)c3)C2=O)CC1)N1CCCC1` (stereo unspecified), for which the AC50 is 6.02 µM.

Regarding `O=C1OC(c2ccccc2)=NC12CC2c1ccc(Cl)cc1` (stereo unspecified), the AC50 was 2.2 µM.

As to `Cc1cc(C)c(OCC(=O)Nc2nc(-c3ccccn3)cs2)c(C)c1`, the AC50 is 4.34 µM.

In the case of `Cc1cc(/C=C2\SC(=S)NC2=O)c(C)n1-c1cccc(O)c1`, the AC50 is 9.83 µM.

In the case of `Cc1ccc(CCNc2ncnc(Cl)c2N)cc1`, the AC50 was 4.48 µM.

For `CCOc1ccc(N/N=C(/C#N)C(N)=O)cc1`, the AC50 is 4.1 µM.

`CC1(C)C=Cc2c(ccc3c2OC[C@@H](c2ccc(O)cc2O)C3)O1`: the AC50 is 5.69 µM.

`Cc1nnc(N/N=C/c2cccc(OCc3ccc(Cl)c(Cl)c3)c2)n1N`: the AC50 was > 12 µM (inactive).

As to `CCCCCCC(Cl)(Cn1ccnc1)c1ccccc1` (stereo unspecified), the AC50 is 6.48 µM.

Take `O=c1[nH]c(=O)n(C2OC(CO)C(O)C2O)cc1F` (stereo unspecified): the AC50 is 5.04 µM.

Take `O=C(CSc1ccc(-c2ccccn2)nn1)NCc1ccc(F)cc1`: the AC50 was 4.86 µM.

On to `Cc1cccc2sc(NNC(=O)c3ccc(S(=O)(=O)N4CCCC(C)C4)cc3)nc12` (stereo unspecified), for which the AC50 is 2.81 µM.

As for `O/N=C/c1cc(Br)ccc1OCc1ccccc1F`, the AC50 was 4.76 µM.

As to `CN(C(=O)COC(=O)c1ccc([N+](=O)[O-])cc1Cl)C1CCCCC1`, the AC50 is 9.99 µM.

As to `Cc1n[nH]c(C)c1N=Nc1ccc(Br)cc1`, the AC50 was 6.88 µM.

For the compound `Cc1ccc([C@@H]2CC=C(C(=O)O)[C@H](c3ccc(Br)cc3)N2S(=O)(=O)c2ccccc2C)cc1`, the AC50 is 5.21 µM.

`CCc1cc(C(N)=O)c(NC(=O)c2ccc(OC)cc2)s1`: the AC50 is 1.77 µM.

Consider `COc1ccc2c(c1)OC[C@H]1[C@H]2N2C(=O)c3cc(Cl)ccc3NC(=O)[C@@]2(C)[C@H]1c1ccccc1`, for which the AC50 was 4.63 µM.

In the case of `Cc1ccc(NC2=C(NC(=O)c3ccccc3)C(=O)c3ccccc3C2=O)cc1Cl`, the AC50 is 7.65 µM.

As for `CCCOc1ccc(S(=O)(=O)n2cc(F)c(=O)[nH]c2=O)cc1`, the AC50 is 3.66 µM.

Take `COc1ccc(N(C(=O)c2ccncc2)S(=O)(=O)c2ccccc2)cc1`: the AC50 was 2.4 µM.

Consider `CC1CC(C)CN(C(=O)c2cccc(S(=O)(=O)Nc3cc(C(F)(F)F)ccc3Cl)c2)C1` (stereo unspecified), for which the AC50 was 5.69 µM.

In the case of `CC(C)C(=O)NC(c1cccc([N+](=O)[O-])c1)c1ccc2cccnc2c1O` (stereo unspecified), the AC50 is 1.27 µM.

For `CC(CNC(=O)COc1ccccc1)OC(=O)Nc1ccc(Cl)c(Cl)c1` (stereo unspecified), the AC50 is 6.12 µM.

`Cc1ccc(S(=O)(=O)N(C(=O)c2ccncc2)c2ccc(OC(=O)c3ccncc3)cc2)cc1`: the AC50 was 1.83 µM.

Take `COc1ccc2c(c1)S/C(=C\C(=O)c1ccncc1)N2C`: the AC50 was 5.21 µM.

With `O=C(NNC(=O)c1cc(Cl)ccc1O)c1cccc(S(=O)(=O)N2CCOCC2)c1`, the AC50 was 5.28 µM.

As to `CCOC(=O)c1ccc(N2C(=O)CC(N(C)CCc3ccc(OC)c(OC)c3)C2=O)cc1` (stereo unspecified), the AC50 was 5.96 µM.

Take `COc1ccc(NC(=O)/C(Cl)=C(/Cl)S(=O)(=O)Cc2ccc(C)cc2)cn1`: the AC50 is 4.67 µM.

Take `S=C1SCN(Cc2cccnc2)CN1Cc1cccnc1`: the AC50 was 4.06 µM.

As to `O=C(OCC(=O)C12CC3CC(CC(C3)C1)C2)c1ccc(O)cc1`, the AC50 is 1.69 µM.

With `O=C(O/N=C(\c1ccccc1)c1ccncc1)c1ccccc1Cl`, the AC50 is > 12 µM (inactive).

For the compound `COc1ccc(N(C)S(=O)(=O)c2ccc(Cl)c(C(=O)NNC(=O)c3ccccc3O)c2)cc1`, the AC50 is 2.52 µM.

`O=C(COC(=O)c1ccc([N+](=O)[O-])o1)NCc1ccc(F)cc1`: the AC50 was 6.66 µM.

As for `COc1ccccc1N(C)S(=O)(=O)c1ccc(Cl)c(C(=O)NNC(=O)c2ccccc2O)c1`, the AC50 was 2.64 µM.

`O=c1cc(CSc2ccc(Cl)cc2)nc(-c2ccccn2)[nH]1`: the concentration at half-maximal activity (AC50) is 4.13 µM.

`O=C(O)c1ccc(N/N=C/C2=C(N3CCOCC3)C(=C\c3ccccc3)/CC2)cc1`: the AC50 was 6.18 µM.

A word on the AC50: it is the concentration at which the activity in the assay is half-maximal.

The values above are taken from PubChem BioAssay AID540271 (Broad Institute, 2011).
